In doi:10.1101/2023.03.24.534094v2 (biorxiv, 2023):
Where two headings read alike, the source gives them in different places.

Tests used:
Test in all cases: biochemical
RSK1b = RSK1b (Homo sapiens, UniProt Q15418)
JNK2 = JNK2 (Homo sapiens, UniProt P45984)
EpHA4 = EpHA4 (Homo sapiens, UniProt P54764)
FES = FES (Homo sapiens, UniProt P07332)
CK2a1 = CK2a1 (Homo sapiens, UniProt P68400)
MAPKAPK2 = MAPKAPK2 (Homo sapiens, UniProt P49137)
NDR2 = NDR2 (Homo sapiens, UniProt Q9Y2H1)
CDKL1 = CDKL1 (Homo sapiens, UniProt Q00532)
Chain of CDKL1 (Q00532 whole entry): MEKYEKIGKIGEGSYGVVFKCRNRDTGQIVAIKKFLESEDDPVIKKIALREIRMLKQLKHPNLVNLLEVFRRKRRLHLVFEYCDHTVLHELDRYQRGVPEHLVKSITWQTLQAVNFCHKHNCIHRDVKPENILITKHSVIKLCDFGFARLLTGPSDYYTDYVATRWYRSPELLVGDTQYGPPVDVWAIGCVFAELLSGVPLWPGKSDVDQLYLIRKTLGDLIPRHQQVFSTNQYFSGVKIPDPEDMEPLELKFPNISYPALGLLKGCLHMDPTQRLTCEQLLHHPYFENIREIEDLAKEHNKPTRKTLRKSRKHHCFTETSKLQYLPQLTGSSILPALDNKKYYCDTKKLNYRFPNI

EphB1 = biological target: T1, EphB1 (Homo sapiens, UniProt P54762)
T1 sequence (P54762 1-984): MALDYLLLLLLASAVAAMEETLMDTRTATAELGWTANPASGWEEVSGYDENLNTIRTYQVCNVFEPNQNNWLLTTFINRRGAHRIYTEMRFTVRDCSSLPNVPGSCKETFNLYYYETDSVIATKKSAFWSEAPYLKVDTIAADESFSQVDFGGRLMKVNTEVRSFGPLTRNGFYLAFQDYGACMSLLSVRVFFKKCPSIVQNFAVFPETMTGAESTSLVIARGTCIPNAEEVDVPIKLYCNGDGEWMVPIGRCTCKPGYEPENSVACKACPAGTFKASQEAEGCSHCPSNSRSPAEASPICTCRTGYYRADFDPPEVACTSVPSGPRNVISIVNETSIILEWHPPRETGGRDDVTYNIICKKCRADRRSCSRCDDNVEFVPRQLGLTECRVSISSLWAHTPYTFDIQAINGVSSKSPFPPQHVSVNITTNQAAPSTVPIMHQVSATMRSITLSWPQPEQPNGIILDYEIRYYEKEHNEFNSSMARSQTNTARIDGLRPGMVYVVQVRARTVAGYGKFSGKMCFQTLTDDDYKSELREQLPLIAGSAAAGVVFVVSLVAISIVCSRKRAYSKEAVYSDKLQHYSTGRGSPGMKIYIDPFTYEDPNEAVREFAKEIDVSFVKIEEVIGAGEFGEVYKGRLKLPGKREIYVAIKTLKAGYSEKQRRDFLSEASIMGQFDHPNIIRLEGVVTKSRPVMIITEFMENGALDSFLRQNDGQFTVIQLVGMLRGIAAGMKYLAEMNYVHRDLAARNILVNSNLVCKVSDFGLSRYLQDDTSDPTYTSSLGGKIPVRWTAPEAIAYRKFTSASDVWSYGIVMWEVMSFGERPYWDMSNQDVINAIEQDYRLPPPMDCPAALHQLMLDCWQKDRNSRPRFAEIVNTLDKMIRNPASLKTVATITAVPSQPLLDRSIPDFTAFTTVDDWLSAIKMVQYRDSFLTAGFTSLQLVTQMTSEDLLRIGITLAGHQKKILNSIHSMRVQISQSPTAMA

ABL1 = ABL1 (Homo sapiens, UniProt P00519)
Chain of ABL1 (P00519 whole entry): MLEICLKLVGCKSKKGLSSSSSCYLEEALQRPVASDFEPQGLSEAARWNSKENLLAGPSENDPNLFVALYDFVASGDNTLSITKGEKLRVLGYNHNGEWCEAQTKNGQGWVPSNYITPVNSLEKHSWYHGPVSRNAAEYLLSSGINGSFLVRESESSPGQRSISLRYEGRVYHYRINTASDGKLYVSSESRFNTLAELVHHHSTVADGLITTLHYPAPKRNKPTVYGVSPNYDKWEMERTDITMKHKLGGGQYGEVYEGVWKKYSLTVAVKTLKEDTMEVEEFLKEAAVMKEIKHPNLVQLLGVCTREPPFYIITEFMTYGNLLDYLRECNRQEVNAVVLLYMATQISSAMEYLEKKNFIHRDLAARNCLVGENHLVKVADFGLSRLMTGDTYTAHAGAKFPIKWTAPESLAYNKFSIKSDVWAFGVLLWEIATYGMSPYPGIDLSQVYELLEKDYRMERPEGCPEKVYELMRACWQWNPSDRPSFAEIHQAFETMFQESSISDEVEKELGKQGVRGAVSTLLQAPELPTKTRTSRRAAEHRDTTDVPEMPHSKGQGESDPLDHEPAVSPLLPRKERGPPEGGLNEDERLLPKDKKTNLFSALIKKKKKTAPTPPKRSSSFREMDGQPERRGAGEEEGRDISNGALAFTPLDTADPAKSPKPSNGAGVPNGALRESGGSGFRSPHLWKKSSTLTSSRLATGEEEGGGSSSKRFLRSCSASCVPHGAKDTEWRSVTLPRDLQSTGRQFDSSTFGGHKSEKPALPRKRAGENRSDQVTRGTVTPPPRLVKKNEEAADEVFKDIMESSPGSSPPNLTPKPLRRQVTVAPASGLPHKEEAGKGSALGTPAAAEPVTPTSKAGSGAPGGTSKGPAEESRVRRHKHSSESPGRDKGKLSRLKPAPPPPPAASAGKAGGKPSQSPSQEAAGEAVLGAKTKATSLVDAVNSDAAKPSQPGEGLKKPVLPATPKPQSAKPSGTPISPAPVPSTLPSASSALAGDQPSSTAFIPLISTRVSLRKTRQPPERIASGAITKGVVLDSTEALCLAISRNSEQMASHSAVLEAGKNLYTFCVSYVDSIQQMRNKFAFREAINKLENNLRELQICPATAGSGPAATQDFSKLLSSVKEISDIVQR

HIPK2 = HIPK2 (Homo sapiens, UniProt Q9H2X6)
Chain of HIPK2 (Q9H2X6 whole entry): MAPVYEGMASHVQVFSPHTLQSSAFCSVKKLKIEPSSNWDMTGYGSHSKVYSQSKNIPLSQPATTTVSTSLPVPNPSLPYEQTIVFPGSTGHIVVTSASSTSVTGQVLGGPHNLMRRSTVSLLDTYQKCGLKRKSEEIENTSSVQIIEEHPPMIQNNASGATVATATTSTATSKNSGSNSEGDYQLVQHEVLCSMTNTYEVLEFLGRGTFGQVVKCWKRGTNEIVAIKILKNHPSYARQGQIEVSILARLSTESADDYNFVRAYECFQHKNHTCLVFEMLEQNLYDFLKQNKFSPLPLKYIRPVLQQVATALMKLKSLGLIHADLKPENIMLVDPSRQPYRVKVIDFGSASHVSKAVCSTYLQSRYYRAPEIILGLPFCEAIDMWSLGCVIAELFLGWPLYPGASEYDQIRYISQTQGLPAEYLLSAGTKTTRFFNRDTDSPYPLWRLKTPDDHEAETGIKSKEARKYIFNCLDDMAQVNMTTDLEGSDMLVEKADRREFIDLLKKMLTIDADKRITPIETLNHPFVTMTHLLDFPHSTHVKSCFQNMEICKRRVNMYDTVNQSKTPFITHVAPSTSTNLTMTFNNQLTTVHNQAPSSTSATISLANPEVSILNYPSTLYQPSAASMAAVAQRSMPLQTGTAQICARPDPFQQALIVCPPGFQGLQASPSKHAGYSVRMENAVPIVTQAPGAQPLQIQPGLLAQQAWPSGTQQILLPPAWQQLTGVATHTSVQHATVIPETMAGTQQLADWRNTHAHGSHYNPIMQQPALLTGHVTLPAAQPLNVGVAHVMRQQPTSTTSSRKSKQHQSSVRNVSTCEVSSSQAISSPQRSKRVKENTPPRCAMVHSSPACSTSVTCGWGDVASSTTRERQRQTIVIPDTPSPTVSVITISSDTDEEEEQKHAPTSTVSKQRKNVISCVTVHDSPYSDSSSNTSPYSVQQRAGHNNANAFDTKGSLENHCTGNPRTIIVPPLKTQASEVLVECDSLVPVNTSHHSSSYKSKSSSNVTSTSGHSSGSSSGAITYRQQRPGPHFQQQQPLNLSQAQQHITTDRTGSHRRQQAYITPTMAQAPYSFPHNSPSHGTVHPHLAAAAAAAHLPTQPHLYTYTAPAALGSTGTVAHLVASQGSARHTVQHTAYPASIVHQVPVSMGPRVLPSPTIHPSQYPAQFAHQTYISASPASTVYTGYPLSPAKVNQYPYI

Chain of EpHA4 (P54764 whole entry): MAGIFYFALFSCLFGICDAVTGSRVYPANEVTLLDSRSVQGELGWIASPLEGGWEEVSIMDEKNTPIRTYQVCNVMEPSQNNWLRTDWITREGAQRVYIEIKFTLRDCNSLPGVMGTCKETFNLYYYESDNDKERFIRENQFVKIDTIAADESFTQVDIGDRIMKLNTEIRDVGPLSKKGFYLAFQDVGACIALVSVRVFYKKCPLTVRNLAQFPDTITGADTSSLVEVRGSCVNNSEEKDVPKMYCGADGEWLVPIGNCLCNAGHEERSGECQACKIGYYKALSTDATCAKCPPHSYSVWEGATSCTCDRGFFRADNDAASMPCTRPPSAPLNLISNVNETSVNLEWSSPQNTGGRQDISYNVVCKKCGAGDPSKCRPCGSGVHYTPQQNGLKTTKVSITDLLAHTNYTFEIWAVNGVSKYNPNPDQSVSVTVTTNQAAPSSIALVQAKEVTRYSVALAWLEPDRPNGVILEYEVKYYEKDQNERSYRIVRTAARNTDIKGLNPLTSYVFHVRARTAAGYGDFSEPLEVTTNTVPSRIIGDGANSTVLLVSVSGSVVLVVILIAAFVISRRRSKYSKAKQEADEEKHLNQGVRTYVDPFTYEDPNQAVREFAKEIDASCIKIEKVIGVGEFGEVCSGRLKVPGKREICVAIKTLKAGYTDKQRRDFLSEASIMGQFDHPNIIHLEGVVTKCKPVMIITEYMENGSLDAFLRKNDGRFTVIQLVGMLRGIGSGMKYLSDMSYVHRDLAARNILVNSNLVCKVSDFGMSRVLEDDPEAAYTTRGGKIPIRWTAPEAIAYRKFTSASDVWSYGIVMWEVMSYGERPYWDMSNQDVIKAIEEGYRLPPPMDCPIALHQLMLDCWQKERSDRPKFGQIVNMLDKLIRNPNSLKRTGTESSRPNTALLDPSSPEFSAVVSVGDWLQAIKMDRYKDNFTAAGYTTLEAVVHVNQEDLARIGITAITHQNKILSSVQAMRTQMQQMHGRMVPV
Chain of FES (P07332 whole entry): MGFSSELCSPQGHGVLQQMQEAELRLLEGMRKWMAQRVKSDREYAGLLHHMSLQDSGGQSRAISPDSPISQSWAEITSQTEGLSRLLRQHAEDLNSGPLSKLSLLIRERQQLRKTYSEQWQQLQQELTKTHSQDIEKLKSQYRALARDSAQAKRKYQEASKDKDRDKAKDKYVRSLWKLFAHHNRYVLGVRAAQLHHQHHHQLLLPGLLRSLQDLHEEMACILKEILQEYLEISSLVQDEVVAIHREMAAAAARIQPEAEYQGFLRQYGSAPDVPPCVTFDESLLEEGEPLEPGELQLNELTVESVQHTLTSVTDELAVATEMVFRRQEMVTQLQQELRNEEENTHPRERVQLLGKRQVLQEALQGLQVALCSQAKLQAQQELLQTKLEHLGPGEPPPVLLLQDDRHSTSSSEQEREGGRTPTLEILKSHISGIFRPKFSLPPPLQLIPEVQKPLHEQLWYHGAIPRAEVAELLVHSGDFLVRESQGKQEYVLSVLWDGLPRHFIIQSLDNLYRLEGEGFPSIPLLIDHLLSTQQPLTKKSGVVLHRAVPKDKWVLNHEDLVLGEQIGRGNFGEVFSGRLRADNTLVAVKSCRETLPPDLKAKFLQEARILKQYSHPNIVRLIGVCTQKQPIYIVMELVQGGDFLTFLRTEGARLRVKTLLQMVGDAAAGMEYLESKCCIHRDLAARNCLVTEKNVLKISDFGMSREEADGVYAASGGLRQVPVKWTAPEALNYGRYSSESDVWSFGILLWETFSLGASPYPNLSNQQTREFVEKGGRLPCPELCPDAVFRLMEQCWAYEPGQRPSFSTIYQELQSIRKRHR
Chain of NDR2 (Q9Y2H1 whole entry): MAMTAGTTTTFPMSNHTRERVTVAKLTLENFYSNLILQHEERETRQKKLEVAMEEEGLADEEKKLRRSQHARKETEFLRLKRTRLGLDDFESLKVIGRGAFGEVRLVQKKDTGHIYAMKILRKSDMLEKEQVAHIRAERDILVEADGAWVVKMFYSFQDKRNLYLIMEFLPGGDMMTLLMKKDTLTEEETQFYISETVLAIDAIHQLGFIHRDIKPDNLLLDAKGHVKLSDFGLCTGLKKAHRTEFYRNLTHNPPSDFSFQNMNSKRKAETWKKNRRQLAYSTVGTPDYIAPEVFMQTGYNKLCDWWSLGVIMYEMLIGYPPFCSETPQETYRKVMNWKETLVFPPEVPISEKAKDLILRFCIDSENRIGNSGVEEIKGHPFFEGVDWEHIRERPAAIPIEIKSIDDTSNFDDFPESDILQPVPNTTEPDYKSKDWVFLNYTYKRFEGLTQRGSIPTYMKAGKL

In the case of `CNc1ncc2cc(-c3cc(F)c(-c4cccc(C)n4)cc3F)c(=O)n(CCCCN)c2n1` [compound 12, 8-(4-Aminobutyl)-6-(2,5-difluoro-4-(6-methylpyridin-2-yl)phenyl)-2-(methylamino)pyrido[2,3-d]pyrimidin-7(8H)-one], the ΔTm at 10 µM (RSK1b; read-out: dTm 12) is reported as -0.2 °C, the ΔTm at 10 µM (JNK2; read-out: dTm 12) is reported as 0.2 °C and the ΔTm at 10 µM (EpHA4; read-out: dTm 12) is reported as 1.6 °C. It also gave a ΔTm at 10 µM (FES; read-out: dTm 12) of 5.4 °C, a ΔTm at 10 µM (CK2a1; read-out: dTm 12) of -0.2 °C and a ΔTm at 10 µM (MAPKAPK2; read-out: dTm 12) of -0.3 °C. For the same molecule, the ΔTm at 10 µM (NDR2; read-out: dTm 12) was 5.2 °C, the ΔTm at 10 µM (CDKL1; read-out: dTm 12) was 0.2 °C and the ΔTm at 10 µM (EphB1; read-out: dTm 12) was 3.5 °C. It also gave a ΔTm at 10 µM (ABL1; read-out: dTm 12) of 3.5 °C and a ΔTm at 10 µM (HIPK2; read-out: dTm 12) of 0.4 °C.

`CNc1ncc2cc(-c3cc(C(F)(F)F)ccc3Cl)c(=O)n(CCCCN)c2n1` [compound 9, 8-(4-Aminobutyl)-6-(2-chloro-5-(trifluoromethyl)phenyl)-2-(methylamino)pyrido[2,3-d]pyrimidin-7(8H)-one] showed a ΔTm at 10 µM (RSK1b; read-out: dTm 9) of 4.5 °C, a ΔTm at 10 µM (JNK2; read-out: dTm 9) of 1 °C and a ΔTm at 10 µM (EpHA4; read-out: dTm 9) of 2.9 °C. It also gave a ΔTm at 10 µM (FES; read-out: dTm 9) of 1.4 °C, a ΔTm at 10 µM (CK2a1; read-out: dTm 9) of 0.1 °C and a ΔTm at 10 µM (MAPKAPK2; read-out: dTm 9) of -0.1 °C. For the same molecule, the ΔTm at 10 µM (NDR2; read-out: dTm 9) was 0.1 °C, the ΔTm at 10 µM (CDKL1; read-out: dTm 9) was 0 °C and the ΔTm at 10 µM (EphB1; read-out: dTm 9) was 3.3 °C. For the same molecule, the ΔTm at 10 µM (ABL1; read-out: dTm 9) was 2.5 °C and the ΔTm at 10 µM (HIPK2; read-out: dTm 9) was 0.7 °C.

`CNc1ncc2cc(-c3cc(Cl)ccc3Cl)c(=O)n(CCCCN)c2n1` [compound 8, 8-(4-Aminobutyl)-6-(2,5-dichlorophenyl)-2-(methylamino)pyrido[2,3-d]pyrimidin-7(8H)-one] gave a ΔTm at 10 µM (RSK1b; read-out: dTm 8) of 6.9 °C, a ΔTm at 10 µM (JNK2; read-out: dTm 8) of 1.2 °C and a ΔTm at 10 µM (EpHA4; read-out: dTm 8) of 4.7 °C. For the same molecule, the ΔTm at 10 µM (FES; read-out: dTm 8) was 2.5 °C, the ΔTm at 10 µM (CK2a1; read-out: dTm 8) was 1.1 °C and the ΔTm at 10 µM (MAPKAPK2; read-out: dTm 8) was 0 °C. The ΔTm at 10 µM (NDR2; read-out: dTm 8) was 0.4 °C, the ΔTm at 10 µM (CDKL1; read-out: dTm 8) was 0.2 °C and the ΔTm at 10 µM (EphB1; read-out: dTm 8) was 5.3 °C. It also gave a ΔTm at 10 µM (ABL1; read-out: dTm 8) of 6.2 °C and a ΔTm at 10 µM (HIPK2; read-out: dTm 8) of 0.7 °C.

For `CNc1ncc2cc(-c3cc(Cl)ccc3Br)c(=O)n(CCCCN)c2n1` [compound 10, 8-(4-Aminobutyl)-6-(2-bromo-5-chlorophenyl)-2-(methylamino)pyrido[2,3-d]pyrimidin-7(8H)-one], the ΔTm at 10 µM (RSK1b; read-out: dTm 10) was 6.2 °C, the ΔTm at 10 µM (JNK2; read-out: dTm 10) was 0.9 °C and the ΔTm at 10 µM (EpHA4; read-out: dTm 10) was 5.1 °C. For the same molecule, the ΔTm at 10 µM (FES; read-out: dTm 10) was 2.5 °C, the ΔTm at 10 µM (CK2a1; read-out: dTm 10) was 1.3 °C and the ΔTm at 10 µM (MAPKAPK2; read-out: dTm 10) was 0 °C. The ΔTm at 10 µM (NDR2; read-out: dTm 10) was 0.4 °C, the ΔTm at 10 µM (CDKL1; read-out: dTm 10) was 0.3 °C and the ΔTm at 10 µM (EphB1; read-out: dTm 10) was 5.5 °C. The ΔTm at 10 µM (ABL1; read-out: dTm 10) was 6.2 °C and the ΔTm at 10 µM (HIPK2; read-out: dTm 10) was 0.8 °C.

Molecule `CNc1ncc2cc(-c3cc(Br)ccc3Br)c(=O)n(CCCCN)c2n1` [compound 11, 8-(4-Aminobutyl)-6-(2,5-dibromophenyl)-2-(methylamino)pyrido[2,3-d]pyrimidin-7(8H)-one] has a ΔTm at 10 µM (RSK1b; read-out: dTm 11) of 5.8 °C, a ΔTm at 10 µM (JNK2; read-out: dTm 11) of 1.2 °C and a ΔTm at 10 µM (EpHA4; read-out: dTm 11) of 4.3 °C. It also gave a ΔTm at 10 µM (FES; read-out: dTm 11) of 2.8 °C, a ΔTm at 10 µM (CK2a1; read-out: dTm 11) of 1.1 °C and a ΔTm at 10 µM (MAPKAPK2; read-out: dTm 11) of 0 °C. The ΔTm at 10 µM (NDR2; read-out: dTm 11) was 0.5 °C, the ΔTm at 10 µM (CDKL1; read-out: dTm 11) was 0.4 °C and the ΔTm at 10 µM (EphB1; read-out: dTm 11) was 4.7 °C. It also gave a ΔTm at 10 µM (ABL1; read-out: dTm 11) of 4.8 °C and a ΔTm at 10 µM (HIPK2; read-out: dTm 11) of 0.8 °C.
